Measurements reported in US7405204B2, “Nucleoside compounds for treating viral infections” (Genelabs Technologies, Inc., priority 2005, dated 2008).
Values belong to the molecule of their own block, whether it stands above or below them.

Tests used:
[1] = tested on: HCV replicon I389luc-ubi-neo/NS3-3′/ET in ET (Huh-lucubineo-ET) cell line; assay: Replicon assay (luciferase reporter); assay type: cell-based; settings: Hepatitis C virus, read-out: % inhibition of replication (luciferase)
Procedure: A cell line, ET (Huh-lucubineo-ET) was used for screening of compounds for inhibiting HCV RNA dependent RNA polymerase. The ET cell line was stably transfected with RNA transcripts harboring a I389luc-ubi-neo/NS3-3′/ET; replicon with firefly luciferase-ubiquitin-neomycin phosphotransferase fusion protein and EMCV-IRES driven NS3-5B polyprotein containing the cell culture adaptive mutations (E1202G; T1280I; K1846T) (Krieger at al, 2001 and unpublished). The ET cells were grown in DMEM, supplemented with 10% fetal calf serum, 2 mM Glutamine, Penicillin (100 IU/mL)/Streptomycin (100 μg/mL), 1× nonessential amino acids, and 250 μg/mL G418 (“Geneticin”). They were all available through Life Technologies (Bethesda, Md.). The cells were plated at 0.5-1.0×10^4 cells/well in the 96 well plates and incubated for 24 hrs before adding test compound. […] Luciferase activity was measured 48-72 hours later by adding a lysis buffer and the substrate (Catalog number Glo-lysis buffer E2661 and Bright-Glo luciferase system E2620 Promega, Madison, Wis.). […] Under the same condition, cytotoxicity of the compounds was determined using cell proliferation reagent, WST-1 (Roche, Germany). […] IC50 and TC50 values were calculated by fitting % inhibition at each concentration to the following equation: % inhibition=100%/[(IC50/[I])^b+1] where b is Hill's coefficient. […]

HCV-NS5b = target: T1, HCV-NS5b (Hepatitis C virus genotype 1b, UniProt Q9WMX2); assay: HCV-NS5b enzyme assay; assay type: biochemical; settings: recombinant NS5b, 37° C., 2 hours, read-out: % inhibition of polymerase activity ([3H]-UTP incorporation)
T1 construct: The cloned fragment was missing the C terminus 21 amino acid residues; (His)6 (C); made in house; host or cells: XL-1 cells (E. coli)
Description: The coding sequence of NS5b protein was cloned by PCR from pFKI389luc/NS3-3′/ET as described by Lohmann, V., et al. (1999) Science 285, 110-113 using the primers shown on page 266 of WO 2005/012288.
The cloned fragment was missing the C terminus 21 amino acid residues. The cloned fragment was inserted into an IPTG-inducible expression plasmid that provides an epitope tag (His)6 at the carboxy terminus of the protein.
The recombinant enzyme was expressed in XL-1 cells and after induction of expression, the protein was purified using affinity chromatography on a nickel-NTA column. Storage condition was 10 mM Tris-HCl pH 7.5, 50 mM NaCl, 0.1 mM EDTA, 1 mM DTT, 20% glycerol at −20° C.
The polymerase activity was assayed by measuring incorporation of radiolabeled UTP into a RNA product using a biotinylated, heteropolymeric template, which includes a portion of the HCV genome. Typically, the assay mixture (34 μL) contains 10 mM Tris-HCl (pH 7.5), 5 mM MgCl2, 0.2 mM EDTA, 10 mM KCl, 1 unit/μL RNAsin, 1 mM DTT, 10 μM each of NTP, including [^3H]-UTP, and 10 ng/μL biotinylated heteropolymeric template. […] Incorporation of radioactivity was determined by scintillation counting (cpm). The % Inhibition at a particular concentration was determined using the following equation, % Inhibition=100−[100*(cpm with inhibitor−bg)/(cpm with no inhibitor−bg)] where bg was the background with no enzyme.

Structure (SMILES): C#Cc1cn(C2OC(CO)[C@@H](O)[C@@]2(C)F)c2ncnc(N)c12 (stereo in doubt) [4-Amino-5-ethynyl-7-(2-deoxy-2-fluoro-2-C-methyl-β-D-ribofuanosyl)-7H-pyrrolo[2,3-d]pyrimidine]
inhibition at 50 µM [1]: 60%

Structure (SMILES): C#Cc1cn(C2OC(COP(=O)(NC(C)C(=O)OC)Oc3ccccc3)[C@@H](O)[C@@]2(C)F)c2ncnc(N)c12 (stereo partly drawn) [[4-Amino-5-ethynyl-7-(2-deoxy-2-fluoro-2-C-methyl-β-D-ribofuanosyl)-7H-pyrrolo[2,3-d]pyrimidine]5′-[Rp/Sp-Methoxyalaninylphenylphosphate]]
inhibition at 12.5 µM [1]: 11%

inhibition at 6 µM (HCV-NS5b): 95%
Structure (SMILES): C#Cc1cn(C2OC(COP(=O)(O)OP(=O)(O)OP(=O)(O)O)[C@@H](O)[C@@]2(C)F)c2ncnc(N)c12 (stereo partly drawn) [[4-Amino-5-ethynyl-7-(2-deoxy-2-fluoro-2-C-methyl-β-D-ribofuanosyl)-7H-pyrrolo[2,3-d]pyrimidine]5′-triphosphate]
